# Earlier results in US12070503B2, “Transdermal carrier” (priority 2014, dated 2024).
# Key:
# [1] = difficult to measure, considered generally
# HSV-infected cells = conditions: compared with alternatives such as Abreva
# hair follicles = conditions: concentrations of 2% and 5%; published studies
smiles,measurement,setting,value
"C[C@H](CCC(=O)O)[C@H]1CC[C@H]2[C@@H]3CC[C@@H]4C[C@H](O)CC[C@]4(C)[C@H]3C[C@H](O)[C@]12C [DCA, deoxycholic acid]",half-life,[1],less than 30 minutes
"Nc1nc2c(ncn2CCC(CO)CO)c(=O)[nH]1 [Penciclovir, penciclovir]",effectiveness against HSV-infected cells,HSV-infected cells,more effective
Nc1cc(N2CCCCC2)nc(N)[n+]1[O-] [minoxidil],treatment time before evidence of hair growth was demonstrated,hair follicles,> 8 months
